Measured values as given in patent US9113629B2, “4-amino-6-(4-substituted-phenyl)-picolinates and 6-amino-2-(4-substituted-phenyl)-pyrimidine-4-carboxylates and their use as herbicides” (DOW AGROSCIENCES LLC, priority 2013, dated 2015).
Like-named read-outs stand apart in the source and are kept apart here.

Assays:
[1] = test system: Key Broadleaf Weed and Crop Species; assay: Post-emergent Test II herbicidal activity (Table 5); format: in vivo; settings: post-emergence, 336 h, 14 days after application; for pest or weed control at 70 g/ha: application rate 70 g ai/ha; for pest or weed control at 140 g/ha: application rate 140 g ai/ha
Method in brief: (§1)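 Greenhouse-grown plants at first or second true leaf stage were sprayed post-emergence with compound in acetone/DMSO-based aqueous spray containing crop oil concentrate and surfactant, at 187 L/ha, highest rate plus ½× to 1/16× dilutions. After 14 d, injury was scored visually versus untreated plants, 0 (none) to 100% (complete kill).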

[2] = test system: Key Grass and Sedge Weeds as well as Grass Crops; assay: Post-emergent Test II herbicidal activity (Table 6); format: in vivo; settings: post-emergence, 336 h; for pest or weed control at 70 g/ha: 70 g ai/ha; for pest or weed control at 140 g/ha: 140 g ai/ha
Method in brief: as §1

[3] = ABUTH: velvetleaf (Abutilon theophrasti), read-out: Visual Growth Reduction (%) 14 Days After Application, ABUTH
[4] = AMARE: redroot pigweed (Amaranthus retroflexus), read-out: Visual Growth Reduction (%) 14 Days After Application, AMARE
[5] = BRSNN: oilseed-rape, canola (Brassica napus), read-out: Visual Growth Reduction (%) 14 Days After Application, BRSNN
[6] = CHEAL: lambsquarters (Chenopodium album), read-out: Visual Growth Reduction (%) 14 Days After Application, CHEAL
[7] = EPHHL: wild poinsettia (Euphorbia heterophylla), read-out: Visual Growth Reduction (%) 14 Days After Application, EPHHL
[8] = HELAN: sunflower (Helianthus annuus), read-out: Visual Growth Reduction (%) 14 Days After Application, HELAN
[9] = VIOTR: wild pansy (Viola tricolor), read-out: Visual Growth Reduction (%) 14 Days After Application, VIOTR
[10] = CYPES: yellow nutsedge (Cyperus esculentus), read-out: Visual Growth Reduction (%) 14 Days After Application, CYPES
[11] = DIGSA: crabgrass (Digitaria sanguinalis), read-out: Visual Growth Reduction (%) 14 Days After Application, DIGSA
[12] = ECHCG: barnyardgrass (Echinochloa crus-galli), read-out: Visual Growth Reduction (%) 14 Days After Application, ECHCG
[13] = ORYSA: rice (Oryza sativa), crop, read-out: Visual Growth Reduction (%) 14 Days After Application, ORYSA
[14] = SETFA: giant foxtail (Setaria faberi), read-out: Visual Growth Reduction (%) 14 Days After Application, SETFA
[15] = SORVU: grain sorghum (Sorghum vulgare), read-out: Visual Growth Reduction (%) 14 Days After Application, SORVU
[16] = TRZSS (wheat, Triticum aestivum), crop, read-out: Visual Growth Reduction (%) 14 Days After Application, TRZSS
[17] = ZEAMX: maize, corn (Zea mays), crop, read-out: Visual Growth Reduction (%) 14 Days After Application, ZEAMX

Structure (SMILES) | pest or weed control at 70 g/ha [1, 3] [%] | pest or weed control at 140 g/ha [1, 3] [%] | pest or weed control at 70 g/ha [1, 4] [%] | pest or weed control at 140 g/ha [1, 4] [%] | pest or weed control at 70 g/ha [1, 5] [%] | pest or weed control at 140 g/ha [1, 5] [%] | pest or weed control at 70 g/ha [1, 6] [%] | pest or weed control at 140 g/ha [1, 6] [%] | pest or weed control at 70 g/ha [1, 7] [%] | pest or weed control at 140 g/ha [1, 7] [%] | pest or weed control at 70 g/ha [1, 8] [%] | pest or weed control at 140 g/ha [1, 8] [%] | pest or weed control at 70 g/ha [1, 9] [%] | pest or weed control at 140 g/ha [1, 9] [%] | pest or weed control at 140 g/ha [2, 10] [%] | pest or weed control at 70 g/ha [2, 11] [%] | pest or weed control at 140 g/ha [2, 11] [%] | pest or weed control at 70 g/ha [2, 12] [%] | pest or weed control at 140 g/ha [2, 12] [%] | pest or weed control at 70 g/ha [2, 13] [%] | further results
COc1c(N)nc(-c2ccc(Br)cc2F)nc1C(=O)O [Compound 46] | 95 to 100 | 95 to 100 | 85 to 94 | 95 to 100 | 95 to 100 | 95 to 100 | 95 to 100 | 95 to 100 | 95 to 100 | 95 to 100 | 85 to 94 | 95 to 100 | 45 to 59 | 95 to 100 | 95 to 100 | 45 to 59 | 60 to 74 | 85 to 94 | 85 to 94 | 0 to 29 | pest or weed control at 70 g/ha [2, 10]: 95 to 100%; pest or weed control at 140 g/ha [2, 13]: 0 to 29%; pest or weed control at 70 g/ha [2, 14]: 75 to 84%; pest or weed control at 140 g/ha [2, 14]: 85 to 94%; pest or weed control at 70 g/ha [2, 15]: 45 to 59%; pest or weed control at 140 g/ha [2, 15]: 60 to 74%; pest or weed control at 70 g/ha [2, 16]: 45 to 59%; pest or weed control at 140 g/ha [2, 16]: 60 to 74%; pest or weed control at 70 g/ha [2, 17]: 45 to 59%; pest or weed control at 140 g/ha [2, 17]: 45 to 59%; melting point: 133 to 135 °C
Nc1c(F)c(-c2ccc(Br)c(F)c2)nc(C(=O)O)c1Cl [Compound 21] | 95 to 100 | 95 to 100 | 95 to 100 | 95 to 100 | 95 to 100 | 95 to 100 | 95 to 100 | 95 to 100 | 95 to 100 | 95 to 100 | 95 to 100 | 95 to 100 | 95 to 100 | 95 to 100 | 95 to 100 | 75 to 84 | 75 to 84 | 95 to 100 | 95 to 100 | 0 to 29 | pest or weed control at 70 g/ha [2, 10]: 95 to 100%; pest or weed control at 140 g/ha [2, 13]: 0 to 29%; pest or weed control at 70 g/ha [2, 14]: 95 to 100%; pest or weed control at 140 g/ha [2, 14]: 95 to 100%; pest or weed control at 70 g/ha [2, 15]: 95 to 100%; pest or weed control at 140 g/ha [2, 15]: 95 to 100%; pest or weed control at 70 g/ha [2, 16]: 60 to 74%; pest or weed control at 140 g/ha [2, 16]: 60 to 74%; pest or weed control at 70 g/ha [2, 17]: 95 to 100%; pest or weed control at 140 g/ha [2, 17]: 95 to 100%; melting point: 117 to 120 °C
COC(=O)c1nc(-c2ccc(OC(F)F)cc2F)c(F)c(N)c1Cl [Compound 104] | 45 to 59 | 45 to 59 | 0 to 29 | 0 to 29 | 0 to 29 | 0 to 29 | 0 to 29 | 0 to 29 | 75 to 84 | 85 to 94 | 75 to 84 | 75 to 84 | 0 to 29 | 0 to 29 | 45 to 59 | 0 to 29 | 0 to 29 | 0 to 29 | 0 to 29 | 0 to 29 | pest or weed control at 70 g/ha [2, 10]: 0 to 29%; pest or weed control at 140 g/ha [2, 13]: 0 to 29%; pest or weed control at 70 g/ha [2, 14]: 0 to 29%; pest or weed control at 140 g/ha [2, 14]: 0 to 29%; pest or weed control at 70 g/ha [2, 15]: 0 to 29%; pest or weed control at 140 g/ha [2, 15]: 45 to 59%; pest or weed control at 70 g/ha [2, 16]: 0 to 29%; pest or weed control at 140 g/ha [2, 16]: 0 to 29%; pest or weed control at 70 g/ha [2, 17]: 45 to 59%; pest or weed control at 140 g/ha [2, 17]: 95 to 100%; melting point: 127 to 129 °C
COC(=O)c1nc(-c2ccc(I)c(F)c2F)c(F)c(N)c1Cl [Compound 99] | 95 to 100 | 95 to 100 | 95 to 100 | 95 to 100 | 95 to 100 | 95 to 100 | 95 to 100 | 95 to 100 | 95 to 100 | 95 to 100 | 95 to 100 | 95 to 100 | 95 to 100 | 95 to 100 | 95 to 100 | 75 to 84 | 85 to 94 | 95 to 100 | 95 to 100 | 0 to 29 | pest or weed control at 140 g/ha [2, 13]: 0 to 29%; pest or weed control at 70 g/ha [2, 14]: 95 to 100%; pest or weed control at 140 g/ha [2, 14]: 95 to 100%; pest or weed control at 70 g/ha [2, 15]: 95 to 100%; pest or weed control at 140 g/ha [2, 15]: 95 to 100%; pest or weed control at 70 g/ha [2, 16]: 45 to 59%; pest or weed control at 140 g/ha [2, 16]: 60 to 74%; pest or weed control at 70 g/ha [2, 17]: 95 to 100%; pest or weed control at 140 g/ha [2, 17]: 95 to 100%; melting point: 168 to 170 °C
COC(=O)c1nc(-c2ccc(Br)cc2F)nc(N)c1OC [Compound 35] | 95 to 100 | 95 to 100 | 75 to 84 | 95 to 100 | 95 to 100 | 95 to 100 | 95 to 100 | 95 to 100 | 95 to 100 | 95 to 100 | 95 to 100 | 95 to 100 | 85 to 94 | 95 to 100 | 95 to 100 | 45 to 59 | 85 to 94 | 30 to 44 | 85 to 94 | 0 to 29 | pest or weed control at 70 g/ha [2, 10]: 95 to 100%; pest or weed control at 140 g/ha [2, 13]: 0 to 29%; pest or weed control at 70 g/ha [2, 14]: 0 to 29%; pest or weed control at 140 g/ha [2, 14]: 45 to 59%; pest or weed control at 70 g/ha [2, 15]: 45 to 59%; pest or weed control at 140 g/ha [2, 15]: 60 to 74%; pest or weed control at 70 g/ha [2, 16]: 30 to 44%; pest or weed control at 140 g/ha [2, 16]: 45 to 59%; pest or weed control at 70 g/ha [2, 17]: 95 to 100%; pest or weed control at 140 g/ha [2, 17]: 95 to 100%; melting point: 163 to 165 °C
